Results from PMC9983627 (Drugs in Context, 2023).

Legend:
Assay in all cases: receptor-ligand binding
Human D2 = Human D2 (Homo sapiens, UniProt P14416); conditions: read-out: Ki (μM) / Human D2
5-HT2A = 5-HT2A (Homo sapiens, UniProt P28223)
Rat D2 = Rat D2 (Rattus norvegicus, UniProt P61169); conditions: read-out: Ki (μM) / Rat D2
5-HT2C = target: T1, 5-HT2C (Homo sapiens, UniProt P28335)
T1 sequence (P28335 33-458): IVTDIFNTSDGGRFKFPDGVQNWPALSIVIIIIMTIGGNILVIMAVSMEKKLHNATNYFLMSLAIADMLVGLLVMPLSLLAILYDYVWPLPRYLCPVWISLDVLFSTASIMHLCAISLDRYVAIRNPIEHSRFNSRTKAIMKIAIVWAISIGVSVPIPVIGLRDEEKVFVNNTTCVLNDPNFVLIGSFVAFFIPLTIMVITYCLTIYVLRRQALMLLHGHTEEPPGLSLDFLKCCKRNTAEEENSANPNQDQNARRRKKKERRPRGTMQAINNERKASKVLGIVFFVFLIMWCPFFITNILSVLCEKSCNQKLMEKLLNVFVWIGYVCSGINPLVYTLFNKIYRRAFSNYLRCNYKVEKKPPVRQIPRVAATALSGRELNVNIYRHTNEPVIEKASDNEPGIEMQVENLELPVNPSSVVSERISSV

h5-HT4B = h5-HT4B (Homo sapiens, UniProt Q13639)
5-HT2B = 5-HT2B (Homo sapiens, UniProt P41595)
m5-HT3 = target: T2, m5-HT3 (Mus musculus, UniProt P23979); conditions: given as a range
T2 sequence (P23979 24-489): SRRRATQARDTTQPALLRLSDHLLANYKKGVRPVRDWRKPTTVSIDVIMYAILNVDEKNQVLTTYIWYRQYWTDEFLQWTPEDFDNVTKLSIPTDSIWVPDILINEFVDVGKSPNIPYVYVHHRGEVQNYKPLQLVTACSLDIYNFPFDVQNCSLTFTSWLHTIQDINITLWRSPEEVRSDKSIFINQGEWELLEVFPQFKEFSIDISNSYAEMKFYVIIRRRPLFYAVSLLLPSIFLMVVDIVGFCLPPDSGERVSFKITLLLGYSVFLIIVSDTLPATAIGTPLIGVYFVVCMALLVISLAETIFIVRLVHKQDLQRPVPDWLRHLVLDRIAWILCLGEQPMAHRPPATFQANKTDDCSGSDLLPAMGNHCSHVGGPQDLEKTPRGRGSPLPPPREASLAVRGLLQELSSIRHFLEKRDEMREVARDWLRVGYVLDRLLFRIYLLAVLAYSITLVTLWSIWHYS

hD4 = target: T3, hD4 (Homo sapiens, UniProt P21917); conditions: given as a range
T3 sequence (P21917 1-419): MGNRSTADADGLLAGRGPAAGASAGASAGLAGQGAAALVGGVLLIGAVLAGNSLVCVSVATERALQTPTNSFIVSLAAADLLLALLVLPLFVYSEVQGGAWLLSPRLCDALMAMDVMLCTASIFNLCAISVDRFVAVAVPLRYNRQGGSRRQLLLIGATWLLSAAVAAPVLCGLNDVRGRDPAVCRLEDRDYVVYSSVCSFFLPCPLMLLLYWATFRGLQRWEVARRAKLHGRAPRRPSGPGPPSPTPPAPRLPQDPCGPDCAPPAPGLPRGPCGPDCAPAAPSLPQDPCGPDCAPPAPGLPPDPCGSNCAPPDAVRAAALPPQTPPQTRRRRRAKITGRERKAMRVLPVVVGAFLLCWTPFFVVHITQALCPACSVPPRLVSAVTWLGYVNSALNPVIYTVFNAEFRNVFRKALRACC

Chain of Rat D2 (P61169 whole entry): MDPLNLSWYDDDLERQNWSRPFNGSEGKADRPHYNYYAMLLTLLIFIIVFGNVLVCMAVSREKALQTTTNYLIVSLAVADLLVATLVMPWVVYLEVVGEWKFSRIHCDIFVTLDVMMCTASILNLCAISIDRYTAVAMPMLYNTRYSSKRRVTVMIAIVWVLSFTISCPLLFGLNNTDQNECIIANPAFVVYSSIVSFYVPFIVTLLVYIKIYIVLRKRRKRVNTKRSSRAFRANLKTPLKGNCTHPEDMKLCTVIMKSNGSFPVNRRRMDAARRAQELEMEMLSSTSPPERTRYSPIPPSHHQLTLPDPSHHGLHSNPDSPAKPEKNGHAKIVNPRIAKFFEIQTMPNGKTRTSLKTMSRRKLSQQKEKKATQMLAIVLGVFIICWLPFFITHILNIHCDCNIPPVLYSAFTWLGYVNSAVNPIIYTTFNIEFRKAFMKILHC
Chain of 5-HT2A (P28223 whole entry): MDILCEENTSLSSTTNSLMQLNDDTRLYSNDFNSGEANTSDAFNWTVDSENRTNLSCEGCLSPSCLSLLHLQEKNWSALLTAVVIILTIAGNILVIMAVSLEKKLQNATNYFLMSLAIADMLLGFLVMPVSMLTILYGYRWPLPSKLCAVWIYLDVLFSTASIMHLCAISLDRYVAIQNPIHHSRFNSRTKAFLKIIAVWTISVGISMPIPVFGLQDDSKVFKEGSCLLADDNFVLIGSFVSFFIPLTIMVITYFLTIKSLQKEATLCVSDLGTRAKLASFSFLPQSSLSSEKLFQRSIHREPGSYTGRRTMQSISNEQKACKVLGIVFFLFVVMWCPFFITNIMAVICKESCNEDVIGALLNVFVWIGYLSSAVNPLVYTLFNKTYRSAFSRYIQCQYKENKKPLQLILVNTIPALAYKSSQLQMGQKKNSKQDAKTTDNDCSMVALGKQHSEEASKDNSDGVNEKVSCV
Chain of Human D2 (P14416 whole entry): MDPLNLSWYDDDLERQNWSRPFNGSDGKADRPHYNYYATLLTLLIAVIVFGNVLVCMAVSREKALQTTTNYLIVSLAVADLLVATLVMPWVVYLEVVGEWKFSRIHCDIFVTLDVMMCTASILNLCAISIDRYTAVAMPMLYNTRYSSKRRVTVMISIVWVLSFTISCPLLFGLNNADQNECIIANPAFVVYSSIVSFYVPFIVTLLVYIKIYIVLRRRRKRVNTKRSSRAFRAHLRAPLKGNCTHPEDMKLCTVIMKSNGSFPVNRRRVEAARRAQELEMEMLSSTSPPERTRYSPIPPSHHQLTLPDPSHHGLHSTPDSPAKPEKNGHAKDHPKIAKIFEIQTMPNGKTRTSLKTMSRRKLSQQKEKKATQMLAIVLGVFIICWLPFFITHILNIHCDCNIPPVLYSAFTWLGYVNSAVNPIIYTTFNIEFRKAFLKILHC
Chain of h5-HT4B (Q13639 whole entry): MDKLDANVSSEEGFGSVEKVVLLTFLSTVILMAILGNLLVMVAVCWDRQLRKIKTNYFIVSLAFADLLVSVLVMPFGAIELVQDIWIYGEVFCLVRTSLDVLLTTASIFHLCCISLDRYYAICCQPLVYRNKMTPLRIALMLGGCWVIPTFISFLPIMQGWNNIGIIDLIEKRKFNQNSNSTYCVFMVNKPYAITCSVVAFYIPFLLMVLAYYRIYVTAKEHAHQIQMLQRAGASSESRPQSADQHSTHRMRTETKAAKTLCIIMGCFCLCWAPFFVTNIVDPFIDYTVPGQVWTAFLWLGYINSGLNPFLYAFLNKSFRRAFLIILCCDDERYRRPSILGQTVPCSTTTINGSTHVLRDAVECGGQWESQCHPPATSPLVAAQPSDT
Chain of 5-HT2B (P41595 whole entry): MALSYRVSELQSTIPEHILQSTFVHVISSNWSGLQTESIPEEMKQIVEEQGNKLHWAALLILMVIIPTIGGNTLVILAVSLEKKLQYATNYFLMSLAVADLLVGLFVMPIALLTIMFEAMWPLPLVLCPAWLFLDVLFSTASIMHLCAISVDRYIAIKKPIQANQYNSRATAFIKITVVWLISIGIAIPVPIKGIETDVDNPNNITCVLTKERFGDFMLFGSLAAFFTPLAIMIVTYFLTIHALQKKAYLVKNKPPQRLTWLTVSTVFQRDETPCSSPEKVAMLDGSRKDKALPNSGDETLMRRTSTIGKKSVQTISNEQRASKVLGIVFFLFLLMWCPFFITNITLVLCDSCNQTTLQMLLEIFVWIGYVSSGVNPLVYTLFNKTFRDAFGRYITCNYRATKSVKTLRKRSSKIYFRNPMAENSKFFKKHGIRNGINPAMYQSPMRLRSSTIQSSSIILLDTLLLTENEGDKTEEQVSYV

SMILES	Ki (Human D2)	Ki (5-HT2A)	Ki (Rat D2)	Ki (5-HT2C)	Ki (h5-HT4B)	Ki (5-HT2B)	Ki (m5-HT3)	Ki (hD4)
Nc1c(Cl)cc(C(=O)NC2CCN(CCC(=O)O)CC2)c2c1CCO2 [R107504]	235 µM	136 µM	138 µM	211 µM	0.074 µM	10 µM		
COCCCN1CCC(NC(=O)c2cc(Cl)c(N)c3c2OCC3)CC1 [Prucalopride]	14 µM	30 µM	6 µM	41 µM			3.5 to 3.8 µM	1.6 to 2.4 µM
